Earlier results, collected in PubChem BioAssay AID1259410 (Chemical Carcinogenesis Research Information System (CCRIS), 2018).

System: rodent tumor promotion studies, tumor incidence
Experiment: CCRIS tumor promotion studies

| Structure (SMILES) | outcome (Carcinogen: 4-(METHYLNITROSAMINO)-1-(3-PYRIDYL)-1-BUTANONE, 64091-91-4, Doses [Carcinogen]: 50 MG/KG ON D 4 OF LIFE, Doses [Promoter]: 500 MG/KG ONCE ON D 56 OF LIFE (STUDY DURATION: 52 WK), Route [Carcinogen]: INTRAPERITONEAL, Route [Promoter]: INTRAGASTRIC, Species: MOUSE, Strain/Sex: SWISS/FEMALE) | outcome (Carcinogen: 4-(METHYLNITROSAMINO)-1-(3-PYRIDYL)-1-BUTANONE, 64091-91-4, Doses [Carcinogen]: 100 MG/KG (0.5 MMOL) IN 0.9% STERILE SALINE ON DAYS 15, 17, AND 19 OF GESTATION, Doses [Promoter]: 0, 500 MG/KG IN OLIVE OIL ON POSTNATAL DAY 56 (STUDY DURATION: 72 WK), Route [Carcinogen]: TRANSPLACENTAL, Route [Promoter]: GAVAGE, Species: MOUSE, Strain/Sex: SWISS/MALE) | outcome (Carcinogen: 4-(METHYLNITROSAMINO)-1-(3-PYRIDYL)-1-BUTANONE, 64091-91-4, Doses [Carcinogen]: 100 MG/KG IN 0.9% SALINE ON GESTATION DAYS 15, 17 AND 19, Doses [Promoter]: 500 MG/KG ONCE ON D 56 OF LIFE TO OFFSPRING OF CARCINOGEN-TREATED MOTHERS (STUDY DURATION: 52 WK), Route [Carcinogen]: INTRAPERITONEAL, Route [Promoter]: INTRAGASTRIC, Species: MOUSE, Strain/Sex: SWISS/MALE) | outcome (Carcinogen: DIETHYLNITROSAMINE, 55-18-5, Doses [Carcinogen]: 90 MG/KG BW ONCE, Doses [Promoter]: 0, 100 PPM IN DIET FOR 20 WK BEGINNING 3 WK POST CARCINOGEN DOSE (STUDY DURATION: 47 WK), Route [Carcinogen]: INTRAPERITONEAL, Route [Promoter]: ORAL, Species: MOUSE, Strain/Sex: C57BL/MALE) | outcome (Carcinogen: DIETHYLNITROSAMINE, 55-18-5, Doses [Carcinogen]: 1100 PPM IN DIET FOR 1 YR, Doses [Promoter]: 0, 100 PPM IN DIET FOR 1 YR (STUDY DURATION: 1 YR), Route [Carcinogen]: ORAL, Route [Promoter]: ORAL, Species: FISH, Strain/Sex: RAINBOW TROUT/MALE, FEMALE) | outcome (Carcinogen: DIISOPROPANOLNITROSAMINE [53609-64-6], Doses [Carcinogen]: SINGLE DOSE OF 2.5 G/KG BW, Doses [Promoter]: 100 PPM IN DIET BEGINNING 1 WK AFTER DIPN TREATMENT FOR 19 WKS (STUDY DURATION: 20 WKS), Route [Carcinogen]: SUBCUTANEOUS INJECTION, Route [Promoter]: DIET, Species: RAT, Strain/Sex: SPRAGUE-DAWLEY/MALE) | outcome (Carcinogen: N-NITROSODIETHYLAMINE, 55-18-5, Doses [Carcinogen]: 90 MG/KG BW ONCE, Doses [Promoter]: 0, 175, 350 PPM IN DIET FOR 53 WK BEGINNING 2 WK POST CARCINOGEN DOSE (STUDY DURATION: 55 WK), Doses [Promoter]: 0, 175, 350 PPM IN DIET FOR 53 WK BEGINNING 2 WK POST CARCINOGEN DOSE (STUDY DURATION: 55 WK), Route [Carcinogen]: INTRAPERITONEAL, Route [Promoter]: ORAL, Species: MOUSE, Strain/Sex: D2B6F1/MALE) | outcome (Carcinogen: N-NITROSODIMETHYLAMINE, 62-75-9, Doses [Carcinogen]: 5 MG/KG IN SALINE ONCE AT 4 DAYS OF AGE, Doses [Promoter]: 0, 250 MG/KG IN OLIVE OIL ONCE AT 8 DAYS OF AGE (STUDY DURATION: 28 WK), Route [Carcinogen]: INTRAPERITONEAL, Route [Promoter]: GAVAGE, Species: MOUSE, Strain/Sex: SWISS/MALE) | outcome (Carcinogen: N-NITROSODIMETHYLAMINE, 62-75-9, Doses [Carcinogen]: 5 MG/KG IN SALINE ONCE AT 4 DAYS OF AGE, Doses [Promoter]: 0, 250 MG/KG IN OLIVE OIL ONCE AT 8 DAYS OF AGE (STUDY DURATION: 52 WK), Route [Carcinogen]: INTRAPERITONEAL, Route [Promoter]: GAVAGE, Species: MOUSE, Strain/Sex: SWISS/MALE) | outcome (Carcinogen: N-NITROSODIMETHYLAMINE, 62-75-9, Doses [Carcinogen]: 5 MG/KG ON D 4 OF LIFE, Doses [Promoter]: 500 MG/KG ONCE ON D 56 OF LIFE (STUDY DURATION: 52 WK), Route [Carcinogen]: INTRAPERITONEAL, Route [Promoter]: INTRAGASTRIC, Species: MOUSE, Strain/Sex: SWISS/MALE) | outcome (Carcinogen: N-NITROSODIMETHYLAMINE, 62-75-9, Doses [Carcinogen]: 10 MG/KG IN SALINE ON GESTATION D 19, Doses [Promoter]: 500 MG/KG ONCE ON D 56 OF LIFE TO OFFSPRING OF CARCINOGEN-TREATED MOTHERS (STUDY DURATION: 52 WK), Route [Carcinogen]: INTRAPERITONEAL, Route [Promoter]: INTRAGASTRIC, Species: MOUSE, Strain/Sex: SWISS/MALE) | outcome (Carcinogen: 3,2'-DIMETHYL-4-AMINOBIPHENYL, 13394-86-0, Doses [Carcinogen]: 50 MG/KG BW ONCE/2 WK FOR FIRST 20 WK (STUDY DURATION: 60 WK), Doses [Promoter]: 0, 100, 300 PPM IN DIET FOR 40 WK BEGINNING 20 WK POST CARCINOGEN TREATMENT (STUDY DURATION: 60 WK), Doses [Promoter]: 0, 100, 300 PPM IN DIET FOR 40 WK BEGINNING 20 WK POST CARCINOGEN TREATMENT (STUDY DURATION: 60 WK), Route [Carcinogen]: SUBCUTANEOUS, Route [Promoter]: ORAL, Species: RAT, Strain/Sex: F344/MALE) | outcome (Carcinogen: AZOXYMETHANE [25843-45-2], Doses [Carcinogen]: 2 DOSES OF 15 MG/KG BW AT 1 WK INTERVALS STARTING AT 6 WKS OF AGE (STUDY DURATION: 36 WKS), Doses [Promoter]: 0, 0.001, 0.01, 0.1, 1, 10, 50, 200 PPM IN DIET FOR 34 WKS STARTING AFTER CARCINOGEN, Doses [Promoter]: 0, 0.001, 0.01, 0.1, 1, 10, 50, 200 PPM IN DIET FOR 34 WKS STARTING AFTER CARCINOGEN, Route [Carcinogen]: SUBCUTANEOUS, Route [Promoter]: ORAL (DIET), Species: RAT, Strain/Sex: F344/MALE) | outcome (Carcinogen: DIETHYLNITROSAMINE, 55-18-5, N-METHYL-N-NITROSOUREA, 684-93-5, N-BUTYL-N-(4-HYDROXYBUTYL)NITROSAMINE, 3817-11-6, 1,, Carcinogen: DIETHYLNITROSAMINE, 55-18-5, N-METHYL-N-NITROSOUREA, 684-93-5, N-BUTYL-N-(4-HYDROXYBUTYL)NITROSAMINE, 3817-11-6, 1,, Doses [Carcinogen]: 100 MG/KG BW DEN ONCE, 20 MG/KG BW MNU 4 TIMES, 0.05% BBN IN DRINKING WATER FOR FIRST 2 WK OF STUDY, 40 MG/KG DMH 4 TIME, Doses [Carcinogen]: 100 MG/KG BW DEN ONCE, 20 MG/KG BW MNU 4 TIMES, 0.05% BBN IN DRINKING WATER FOR FIRST 2 WK OF STUDY, 40 MG/KG DMH 4 TIME, Doses [Promoter]: 0, 60 PPM IN DIET FOR 24 WK BEGINNING AT WK 5 OF STUDY (STUDY DURATION: 29 WK), Route [Carcinogen]: INTRAPERITONEAL, INTRAPERITONEAL, ORAL, SUBCUTANEOUS, ORAL, Route [Carcinogen]: INTRAPERITONEAL, INTRAPERITONEAL, ORAL, SUBCUTANEOUS, ORAL, Route [Promoter]: ORAL, Species: RAT, Strain/Sex: F344/MALE) | outcome (Carcinogen: DIETHYLNITROSAMINE, 55-18-5, N-METHYL-N-NITROSOUREA, 684-93-5, N-BUTYL-N-(4-HYDROXYBUTYL)NITROSAMINE, 3817-11-6, 1,, Carcinogen: DIETHYLNITROSAMINE, 55-18-5, N-METHYL-N-NITROSOUREA, 684-93-5, N-BUTYL-N-(4-HYDROXYBUTYL)NITROSAMINE, 3817-11-6, 1,, Doses [Carcinogen]: 100 MG/KG BW DEN ONCE, 20 MG/KG BW MNU 4 TIMES, 0.05% BBN IN DRINKING WATER FOR FIRST 2 WK OF STUDY, 40 MG/KG DMH 4 TIME, Doses [Carcinogen]: 100 MG/KG BW DEN ONCE, 20 MG/KG BW MNU 4 TIMES, 0.05% BBN IN DRINKING WATER FOR FIRST 2 WK OF STUDY, 40 MG/KG DMH 4 TIME, Doses [Promoter]: 0, 300 PPM IN DIET FOR 24 WK BEGINNING AT WK 5 OF STUDY (STUDY DURATION: 29 WK), Route [Carcinogen]: INTRAPERITONEAL, INTRAPERITONEAL, ORAL, SUBCUTANEOUS, ORAL, Route [Carcinogen]: INTRAPERITONEAL, INTRAPERITONEAL, ORAL, SUBCUTANEOUS, ORAL, Route [Promoter]: ORAL, Species: RAT, Strain/Sex: F344/MALE) |
| --- | --- | --- | --- | --- | --- | --- | --- | --- | --- | --- | --- | --- | --- | --- | --- |
| Clc1cccc(-c2ccc(Cl)c(Cl)c2Cl)c1Cl | lung: tumor | liver: hepatocellular adenoma or carcinoma | lung: tumor | liver: tumor | liver: hepatocellular carcinoma | thyroid: carcinoma | liver: hepatocellular adenoma, hepatocellular carcinoma | lung: tumor | lung: tumor; liver: tumor | lung: tumor; liver: tumor | lung: tumor |  |  |  |  |
| Cn1c(N)nc2ncc(-c3ccccc3)cc21 |  |  |  |  |  |  |  |  |  |  |  | small intestine: adenocarcinoma | large intestine: adenomas and adenocarcinoma; only doses of 50 and 200 ppm were | large intestine: adenocarcinoma | small intestine: adenocarcinoma; large intestine: adenocarcinoma |
